{
  "source": "patent US20250255961A1",
  "about": "“METHODS TO STIMULATE IMMUNE RESPONSES TO MUTANT RAS USING NUCLEATED CELLS” (STEMCELL TECHNOLOGIES CANADA INC., priority 2020, published 2025)",
  "key": {"[1]": {"system": "K-Ras G12V responder T cells", "test": "IFN-γ ELISPOT: peptide-loaded HLA-A*11+ human PBMCs co-cultured with K-Ras G12V responder T cells", "format": "cell-based", "conditions": "for IFN-γ expressing K-Ras-G12V responder T cells upon co-culture: HLA-A*11+ human PBMCs SQZ-loaded with 100 μM SLP; for IFN-γ secretion by K-Ras-G12V responder T cells upon co-culture: Example 4, FIG. 4, HLA-A*11+ human PBMCs (donor 296) SQZ-loaded with 100 μM SLP", "method": "(§1) Human PBMCs from HLA-A*11^+ donor (donor 296) were prepared at a density of 10×10^6/mL, SQZ processed at room temperature through a constriction of 4.5 μm width, 10 μm length and 70 μm depth at 60 psi with 100 μM of the respective K-Ras synthetic long peptide (G12V^1-16, G12V^2-19) or with vehicle control (DMSO) in RPMI medium. Following SQZ-processing, the SQZ-loaded PMBCs were centrifuged, and the supernatant was discarded. The cells were subsequently washed once in R10 medium (RPMI+10% FCS+1% Pen/Strep), then washed twice in CTL medium (supplemented with 1% glutamine), before resuspension in fresh CTL medium (supplemented with 1% glutamine).\n(§2) 2×10^5 SQZ-loaded PBMCs were then placed in co-culture with 5×10^4 K-Ras G12V responder T cells (generated in transgenic mice) in an IFN-γ ELISPOT plate. As a positive control, 10 μM K-Ras G12V^7-16 peptide containing the minimal epitope was added directly to untreated PBMCs and responder cells in the ELISPOT plate (peptide spike). The plate was incubated overnight at 37° C. and then developed/quantified according to manufacturer's instructions.\nas §1, with “donor” for “donor (donor 296)”, “constriction with” for “constriction of”, “peptide (K-Ras G12V^3-17, K-Ras G12V^3-42)” for “peptide (G12V^1-16, G12V^2-19)”, “medium. An irrelevant synthetic long peptide (HPV-E7.6) was used as a negative control.” for “medium.”\nas §1, with “donor” for “donor (donor 296)”, “10× 10^6/mL,” for “10×10^6/mL,”, “(wild type K-Ras^1-16, G12V^1-16, wild type K-Ras^2-22, or G12V^2-22)” for “(G12V^1-16, G12V^2-19)”\nas §1, with “donor” for “donor (donor 296)”, “of a single” for “of the respective”, “peptide (G12V^1-16” for “peptide (G12V^1-16, G12V^2-19)”, “or G12V^2-19), or a combination of two K-Ras synthetic long peptides which are each at 100 μM (G12V^1-16 plus G12D^1-16 or G12V^2-19 plus G12D^1-16) or” for “or with”, “glutamine). […]” for “glutamine).”"}, "[2]": {"system": "K-Ras G12V responder T cells", "test": "IFN-γ ELISPOT: peptide-loaded HLA-A*11+ human PBMCs co-cultured with K-Ras G12V responder T cells", "format": "cell-based"}, "[3]": {"system": "K-Ras G12D responder T cells", "test": "IFN-γ ELISPOT: peptide-loaded HLA-A*11+ human PBMCs co-cultured with K-Ras G12D responder T cells", "format": "cell-based, transgenic mice", "conditions": "for IFN-γ expressing by K-Ras-G12D responder T cells upon co-culture: Example 1, FIG. 1, vehicle control DMSO, overnight 37° C.; for IFN-γ expressing responder T cells upon co-culture: PBMCs incubated with 100 μM SLP at room temperature without SQZ (Endo-G12D); for IFN-γ secretion by K-Ras-G12D responder T cells upon co-culture: Example 3, FIG. 3, HLA-A*11+ human PBMCs (donor 339) SQZ-loaded with 100 μM SLP", "method": "as §1, with “donor” for “donor (donor 296)”, “and SQZ-processed” for “SQZ processed”, “K-Ras G12D” for “K-Ras”, “(either G12D^1-16, G12D^2-19, G12D^2-22, G12D^2-29)” for “(G12V^1-16, G12V^2-19)”, “PBMCs” for “PMBCs”\nas §2, with “G12D” for “G12V”, “G12D^7-16” for “G12V^7-16”\nas §1, with “donor” for “donor (donor 296)”, “10×10^6/mL, and” for “10×10^6/mL,”, “(either wild type K-Ras^1-16 or K-Ras-G12D^1-16)” for “(G12V^1-16, G12V^2-19)”, “glutamine). […]” for “glutamine).”\nas §1, with “339)” for “296)”, “(either wild type K-Ras^2-22 or K-Ras G12D^2-22)” for “(G12V^1-16, G12V^2-19)”, “glutamine). […]” for “glutamine).”\n2×10^5 of either the SQZ-loaded PBMCs (SQZ-G12D) or SLP-incubated PBMCs (Endo-G12D), or an equal volume of the fluid phase solution (FF-G12D) were then placed in co-culture with 5×10^4 K-Ras G12D responder T cells (generated in transgenic mice) in an IFN—Y ELISPOT plate. As a positive control, 10 μM K-Ras G12D^7-16 peptide containing the minimal epitope was added directly to untreated PBMCs and responder cells in the ELISPOT plate (spike). 10 μM wild type K-Ras^7-16 peptide was added to PBMCs and responder as another […] (spike). The plate was incubated overnight at 37° C. and then developed/quantified according to manufacturer's instructions."}, "[4]": {"conditions": "HLA-A*11+ human PBMCs SQZ-loaded with 100 μM SLP"}, "[5]": {"conditions": "Example 2, FIG. 2, HLA-A*11+ human PBMCs SQZ-loaded with 100 μM SLP, compared to vehicle control"}, "[6]": {"conditions": "Example 6, FIG. 6, compared to vehicle control"}},
  "note": "“Also recorded” adds a separate entry of the source.",
  "data": [
    {"substance": "EYKLVVVGAVGVGKS [G12V^3-17, K-Ras G12V synthetic long peptide, residues 3-17]", "values": [
      {"measurement": "IFN-γ expressing K-Ras-G12V responder T cells upon co-culture", "setting": "[1]; Example 5, FIG. 5", "value": "significant increases"},
      {"measurement": "IFN-γ expressing K-Ras-G12V responder T cells upon co-culture", "setting": "[2]; Example 5, FIG. 5, HLA-A*11+ human PBMCs SQZ-loaded with 100 μM SLP, listed as K-Ras-G12V^3-17", "value": "increased amount"}
    ]},
    {"substance": "EYKLVVVGAVGVGKSALTIQLIQNHFVDEYDPTIEDSYRK [G12V^3-42, K-Ras G12V synthetic long peptide, residues 3-42]", "values": [
      {"measurement": "IFN-γ expressing K-Ras-G12V responder T cells upon co-culture", "setting": "[1]; Example 5, FIG. 5", "value": "significant increases"},
      {"measurement": "IFN-γ expressing K-Ras-G12V responder T cells upon co-culture", "setting": "[2]; Example 5, FIG. 5, HLA-A*11+ human PBMCs SQZ-loaded with 100 μM SLP, listed as K-Ras-G12V^3-42", "value": "increased amount"}
    ]},
    {"substance": "MTEYKLVVVGADGVGK [G12D^1-16, K-Ras G12D synthetic long peptide, residues 1-16]", "values": [
      {"measurement": "IFN-γ expressing by K-Ras-G12D responder T cells upon co-culture", "setting": "[3]; [4]", "value": "increased amount; also recorded: significant increases"},
      {"measurement": "IFN-γ expressing K-Ras-G12D responder T cells upon co-culture", "setting": "[3]; [5]", "value": "significant increases"},
      {"measurement": "IFN-γ expressing K-Ras-G12D responder T cells upon co-culture", "setting": "[3]; Example 2, FIG. 2, HLA-A*11+ human PBMCs SQZ-loaded with 100 μM SLP, compared to vehicle control, listed as K-Ras-G12D^1-16", "value": "increased amount"},
      {"measurement": "IFN-γ expressing K-Ras-G12D responder T cells upon co-culture", "setting": "[3]; Example 7, FIG. 7, HLA-A*11+ human PBMCs SQZ-loaded with one SLP or a combination of two SLPs, each at 100 μM", "value": "significant increases"},
      {"measurement": "IFN-γ expressing K-Ras G12D responder T cells upon co-culture", "setting": "[3]; Example 10, FIG. 10, HLA-A*11+ human PBMCs SQZ-loaded with 100 μM SLP (SQZ-G12D), listed as K-Ras-G12D^1-16", "value": "significant increases; also recorded: increased amount"},
      {"measurement": "IFN-γ expressing responder T cells upon co-culture", "setting": "[3]; Example 10", "value": "did not result in increase"}
    ]},
    {"substance": "MTEYKLVVVGAVGVGK [G12V^1-16, K-Ras G12V synthetic long peptide, residues 1-16]", "values": [
      {"measurement": "IFN-γ secretion by K-Ras-G12V responder T cells upon co-culture", "setting": "[1]", "value": "significantly increased"},
      {"measurement": "IFN-γ secretion by K-Ras-G12V responder T cells upon co-culture", "setting": "[1]; listed as K-Ras-G12V^1-16", "value": "increased amount"},
      {"measurement": "IFN-γ expressing K-Ras-G12V responder T cells upon co-culture", "setting": "[1]; [6]", "value": "significant increases"},
      {"measurement": "IFN-γ expressing K-Ras-G12V responder T cells upon co-culture", "setting": "[1]; Example 6, FIG. 6, compared to vehicle control, listed as K-Ras-G12V^1-16", "value": "increased amount"},
      {"measurement": "IFN-γ expressing K-Ras-G12V responder T cells upon co-culture", "setting": "[2]; Example 8, FIG. 8, HLA-A*11+ human PBMCs SQZ-loaded with one SLP or a combination of two SLPs, each at 100 μM", "value": "significant increases"}
    ]},
    {"substance": "TEYKLVVVGADGVGKSAL [G12D^2-19, K-Ras G12D synthetic long peptide, residues 2-19]", "values": [
      {"measurement": "IFN-γ expressing by K-Ras-G12D responder T cells upon co-culture", "setting": "[3]; [4]", "value": "increased amount; also recorded: significant increases"}
    ]},
    {"substance": "TEYKLVVVGADGVGKSALTIQ [G12D^2-22, K-Ras G12D synthetic long peptide, residues 2-22]", "values": [
      {"measurement": "IFN-γ expressing by K-Ras-G12D responder T cells upon co-culture", "setting": "[3]; [4]", "value": "increased amount; also recorded: significant increases"},
      {"measurement": "IFN-γ secretion by K-Ras-G12D responder T cells upon co-culture", "setting": "[3]; compared to vehicle control", "value": "significantly increased"},
      {"measurement": "IFN-γ secretion by K-Ras-G12D responder T cells upon co-culture", "setting": "[3]; compared to vehicle control, listed as K-Ras-G12D^2-22", "value": "increased amount"}
    ]},
    {"substance": "TEYKLVVVGADGVGKSALTIQLIQNHFV [G12D^2-29, K-Ras G12D synthetic long peptide, residues 2-29]", "values": [
      {"measurement": "IFN-γ expressing by K-Ras-G12D responder T cells upon co-culture", "setting": "[3]; [4]", "value": "increased amount; also recorded: significant increases"},
      {"measurement": "IFN-γ expressing K-Ras G12D responder T cells upon co-culture", "setting": "[3]; Example 10, FIG. 10, HLA-A*11+ human PBMCs SQZ-loaded with 100 μM SLP (SQZ-G12D), listed as K-Ras-G12D^2-29", "value": "significant increases; also recorded: increased amount"},
      {"measurement": "IFN-γ expressing responder T cells upon co-culture", "setting": "[3]; Example 10", "value": "did not result in increase"}
    ]},
    {"substance": "VVVGADGVGK [K-Ras G12D^7-16, positive control peptide spike, reference compound]", "values": [
      {"measurement": "IFN-γ expressing K-Ras G12D responder T cells upon co-culture", "setting": "[3]; Example 10, 10 μM peptide added directly to untreated PBMCs and responder cells (peptide spike, positive control)", "value": "significant increases"}
    ]},
    {"substance": "wild type K-Ras^1-16: wild type K-Ras synthetic long peptide, residues 1-16; mutation-specificity comparator (MTEYKLVVVGAGGVGK; UniProt P01116 1-16, looked up, fragment) [reference compound]", "values": [
      {"measurement": "IFN-γ expressing K-Ras-G12V responder T cells upon co-culture", "setting": "[1]; [6]", "value": "did not elicit increases"},
      {"measurement": "IFN-γ expressing K-Ras-G12D responder T cells upon co-culture", "setting": "[3]; [5]", "value": "did not elicit increases"}
    ]}
  ]
}
